Biological target: T1, TMEM16A (Homo sapiens, UniProt Q5XXA6, DEL476-501)
T1 construct: expressed in transfected cells
T1 sequence (Q5XXA6 with tags, fused parts or gaps isoform Q5XXA6-5 DEL539-564): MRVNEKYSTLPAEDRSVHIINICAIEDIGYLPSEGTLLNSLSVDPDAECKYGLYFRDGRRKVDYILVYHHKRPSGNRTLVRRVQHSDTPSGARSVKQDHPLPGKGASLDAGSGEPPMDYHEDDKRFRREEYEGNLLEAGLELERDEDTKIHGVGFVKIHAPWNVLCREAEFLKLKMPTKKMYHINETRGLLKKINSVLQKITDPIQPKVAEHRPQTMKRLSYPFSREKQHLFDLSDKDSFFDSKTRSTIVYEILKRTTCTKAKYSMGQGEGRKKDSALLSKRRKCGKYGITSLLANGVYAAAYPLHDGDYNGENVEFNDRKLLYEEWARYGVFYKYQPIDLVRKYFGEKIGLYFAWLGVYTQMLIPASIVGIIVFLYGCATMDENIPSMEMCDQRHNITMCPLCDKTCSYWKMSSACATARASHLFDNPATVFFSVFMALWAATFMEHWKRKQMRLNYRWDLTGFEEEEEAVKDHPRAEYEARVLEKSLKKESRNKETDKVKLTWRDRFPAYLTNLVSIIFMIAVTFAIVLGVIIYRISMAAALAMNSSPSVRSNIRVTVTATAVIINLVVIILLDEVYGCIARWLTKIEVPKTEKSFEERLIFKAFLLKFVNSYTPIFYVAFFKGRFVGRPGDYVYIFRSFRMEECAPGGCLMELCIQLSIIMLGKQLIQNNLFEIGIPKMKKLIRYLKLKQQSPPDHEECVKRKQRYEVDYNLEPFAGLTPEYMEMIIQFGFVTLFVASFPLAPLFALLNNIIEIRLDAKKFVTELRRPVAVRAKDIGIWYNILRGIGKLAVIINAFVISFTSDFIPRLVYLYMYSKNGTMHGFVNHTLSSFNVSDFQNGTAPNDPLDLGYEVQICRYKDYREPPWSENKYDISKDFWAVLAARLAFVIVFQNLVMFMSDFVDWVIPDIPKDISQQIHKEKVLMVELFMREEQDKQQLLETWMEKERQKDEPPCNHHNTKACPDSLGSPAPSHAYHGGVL
Test: Whole-cell patch-clamp of TMEM16A-expressing FRT cells
Format: cell-based
Description: FIG. 4A-D. Patch-clamp analysis of Ca^2+ requirements for TMEM16A activation by Eact and Fact. FIG. 4A. Apical membrane current measured in TMEM16A-expressing FRT cells. ER calcium stores were depleted by CPA (50 μM, 30 min) and 0 CaCl2 in bath. ATP (100 μM), Fact (10 μM), Eact (10 μM) and T16Ainh-A01 (10 μM) were added as indicated. FIG. 4B and FIG. 4C. Whole-cell TMEM16A currents were recorded at a holding potential at 0 mV, and pulsing to voltages between ±80 mV (in steps of 20 mV) in the absence and presence of 3 μM Eact or 10 μM Fact. Free calcium concentration of pipette solutions were clamped at 0 μM, 0.07 μM, 0.15 μM, and 1 μM. Eact (3 μM) or Fact (10 μM) added as indicated. (right) Current/voltage (I/V) plots of mean currents at the middle of each voltage pulse. The Ca^2+ concentration is indicated to the right. FIG. 4D. TMEM16A inhibited by 10 μM T16Ainh-A01 after stimulation by Eact or Fact.
Whole-cell recordings were made at room temperature on TMEM16A-expressing FRT cells and human submandibular A253 cells. The bath solution contained (in mM): 140 NMDG-Cl, 1 CaCl2, 1 MgCl2, 10 glucose and 10 HEPES (pH 7.4). The pipette solution contained (in mM): 130 CsCl, 0.5 EGTA, 1 MgCl2, 1 Tris-ATP, and 10 HEPES (pH 7.2). Different concentrations of free calcium in pipette solution were obtained by replacing 0.5 mM EGTA with 5 mM EGTA, and using different amounts of CaCl2 in the pipette solution. Pipettes were pulled from borosilicate glass and had resistances of 3-5 MΩ after fire polishing. Seal resistances were between 3 and 10 GΩ. After establishing the whole-cell configuration, TMEM16A was activated by 100 μM ATP, TMEM16A activators or different concentrations of free calcium in the pipette solution. Whole-cell currents were elicited by applying hyperpolarizing and depolarizing voltage pulses from a holding potential of 0 mV to potentials between −100 mV and +100 mV in steps of 20 mV. Recordings were made at room temperature using an Axopatch-200B (Axon Instruments). Currents were digitized with a Digidata 1440A converter (Axon Instruments), filtered at […].
The Ca^2+ dependence of TMEM16A activation by Eact and Fact was investigated. […] Whole-cell currents were then recorded by patch-clamp at different cytoplasmic (pipette) [Ca^2+]. […] (FIG. 4B, bottom and right). […] Thus, Eact and Fact activate TMEM16A by different mechanisms: Eact as a largely Ca^2+-independent ‘activator’, and Fact as a ‘potentiator’ of Ca^2+ activation.

In the case of CCc1c(C)nc(SCC(=O)Nc2nc(-c3ccc(OC)cc3)cs2)[nH]c1=O [T16Ainh-A01, reference compound], the “block of Cl^− currents produced by Eact or Fact” value (10 μM T16Ainh-A01) was “completely blocked”.
In the case of O=C(Nc1ccc(Br)cc1)c1cccc(-n2cnnn2)c1 [Fact, N-(4-bromophenyl)-3-(1H-tetrazol-1-yl)benzamide], the “maximum TMEM16A Cl^− current at high [Ca^2+]” value (3 μM Eact or 10 μM Fact) was “not further increased”, the “whole-cell Cl^− current at submaximal Ca^2+” value (compared to no compound, 10 μM Fact) was “increased Cl^− current” and the “whole-cell TMEM16A Cl^− current at 0 Ca^2+” value (pipette 0 Ca^2+, 3 μM Eact or 10 μM Fact) was “did not product Cl^− current”.

Reference: patent US9790218B2, “Small molecule activators of calcium-activated chloride channels and methods of use” (The Regents of the University of California, priority 2011, dated 2017)
